The values below come from patent US20150087662A1, “CYCLOBUTANE AND METHYLCYCLOBUTANE DERIVATIVES AS JANUS KINASE INHIBITORS” (Incyte Corporation, priority 2010, published 2015).

Structures can show the parent of a compound that is named as a salt. Some results are limits rather than exact numbers.

Assay [1] concerns the target T1, human JAK1 (a.a. 837-1142) (Homo sapiens, UniProt P23458).
T1 construct: human JAK1 (a.a. 837-1142); His tag (N); made in house; host or cells: insect cells (baculovirus)
The assay can be described thus: In vitro JAK kinase assay (HTRF), JAK1. To be noted: catalytic domain, ATP 90 μM, 500 nM peptide, room temperature 1 hr. The format is biochemical. As for the experimental part:
(§1) Compounds herein were tested for inhibitory activity of JAK targets according to the following in vitro assay described in Park et al., Analytical Biochemistry 1999, 269, 94-104. The catalytic domains of human JAK1 (a.a. 837-1142), JAK2 (a.a. 828-1132) and JAK3 (a.a. 781-1124) with an N-terminal His tag were expressed using baculovirus in insect cells and purified. The catalytic activity of JAK1, JAK2 or JAK3 was assayed by measuring the phosphorylation of a biotinylated peptide. The phosphorylated peptide was detected by homogenous time resolved fluorescence (HTRF). IC50s of compounds were measured for each kinase in the reactions that contain the enzyme, ATP and 500 nM peptide in 50 mM Tris (pH 7.8) buffer with 100 mM NaCl, 5 mM DTT, and 0.1 mg/mL (0.01%) BSA. The ATP concentration in the reactions was 90 μM for JAK1, 30 μM for JAK2 and 3 μM for JAK3. Reactions were carried out at room temperature for 1 hr and then stopped with 20 μL 45 mM EDTA, 300 nM SA-APC, 6 nM Eu-Py20 in assay buffer (Perkin Elmer, Boston, Mass.). Binding to the Europium labeled antibody took place for 40 minutes and HTRF signal was measured on a Fusion plate reader (Perkin Elmer, Boston, Mass.).
For orientation: TR-FRET usually uses a lanthanide donor and a delayed reading to cut background.

A further assay has as its target T2, JAK2 (a.a. 828-1132) (Homo sapiens, UniProt O60674).
T2 construct: JAK2 (a.a. 828-1132); His tag (N); made in house; host or cells: insect cells (baculovirus)
Briefly: In vitro JAK kinase assay (HTRF), JAK2. Type of assay: biochemical. The note with it: catalytic domain, ATP 30 μM, 500 nM peptide, room temperature 1 hr. The protocol: as §1

T1 sequence (P23458 849-1154): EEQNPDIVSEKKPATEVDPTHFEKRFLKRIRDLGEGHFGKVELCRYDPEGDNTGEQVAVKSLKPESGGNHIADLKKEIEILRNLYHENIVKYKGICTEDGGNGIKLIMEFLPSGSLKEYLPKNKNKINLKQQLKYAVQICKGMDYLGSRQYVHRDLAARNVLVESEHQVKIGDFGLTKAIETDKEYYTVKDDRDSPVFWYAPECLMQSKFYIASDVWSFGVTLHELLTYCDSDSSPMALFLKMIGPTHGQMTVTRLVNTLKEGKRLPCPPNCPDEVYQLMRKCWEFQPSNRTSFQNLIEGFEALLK
T2 sequence (O60674 828-1132): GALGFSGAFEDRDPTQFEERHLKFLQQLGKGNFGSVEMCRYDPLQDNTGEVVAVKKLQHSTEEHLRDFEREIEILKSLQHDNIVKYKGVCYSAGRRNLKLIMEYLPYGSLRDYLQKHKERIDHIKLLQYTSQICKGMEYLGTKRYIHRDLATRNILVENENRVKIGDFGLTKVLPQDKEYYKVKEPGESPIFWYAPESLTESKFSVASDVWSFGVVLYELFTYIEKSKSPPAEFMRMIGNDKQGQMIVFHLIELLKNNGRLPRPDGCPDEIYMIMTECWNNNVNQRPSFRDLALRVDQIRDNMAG

A word on the IC50: it is the midpoint of a concentration-inhibition curve. As for `N#CCC(C1CCC1)n1cc(-c2ncnc3[nH]ccc23)cn1` (single isomer, unassigned) [Example 1, (R or S)-3-Cyclobutyl-3-[4-(7H-pyrrolo[2,3-d]pyrimidin-4-yl)-1H-pyrazol-1-yl]propanenitrile], the IC50 in assay [1] is less than 2 nM; at JAK2 (a.a. 828-1132), less than 1 nM.
Taken in the same sequence, the figures for `C[C@H]1C[C@H](C(CC#N)n2cc(-c3ncnc4[nH]ccc34)cn2)C1` (single isomer, unassigned) [Example 2, (3R or 3S)-3-(4-(7H-Pyrrolo[2,3-d]pyrimidin-4-yl)-1H-pyrazol-1-yl)-3-((trans)-3-methylcyclobutyl)propanenitrile phosphoric acid salt] were less than 2 nM and less than 1 nM.
Taken in the same sequence, the figures for `C[C@H]1C[C@@H](C(CC#N)n2cc(-c3ncnc4[nH]ccc34)cn2)C1` (single isomer, unassigned) [Example 3, (3R or 3S)-3-(4-(7H-Pyrrolo[2,3-d]pyrimidin-4-yl)-1H-pyrazol-1-yl)-3-((cis)-3-methylcyclobutyl)-propanenitrile phosphoric acid salt] were less than 2 nM and less than 1 nM.
